From US20250339567A1, “COMPOUNDS WITH IMPROVED PHARMACOKINETICS FOR IMAGING AND THERAPY OF CANCER” (priority 2019, published 2025)
Where two headings read alike, the source gives them in different places. Starred links: 1 amine or outer side, 2 acyl side, 3 side chain; linkers in the order of their positions; H or OH if unused. Non-standard residues stand in square brackets, D forms with d. Residues, ends and D or L forms follow the SMILES beside them. *: point of attachment. X4 = O=C(O)CN1CCN(CC(=O)O)CCN(CC(=O)NCc2ccc(NC(=O)COCC(=O)*)cc2)CCN(CC(=O)O)CC1; DOTAGA = O=C(O)CN1CCN(CC(=O)O)CCN(C(CCC(=O)*)C(=O)O)CCN(CC(=O)O)CC1; Benzoyl(4-SiFtBu2) = CC(C)(C)[Si](F)(c1ccc(C(=O)*)cc1)C(C)(C)C; d(γGlu) = O=C(O)[C@@H](CCC(=O)[*:2])N[*:1]; Sta = CC(C)C[C@H](N)[C@@H](O)CC(=O)O; Bta = N[C@@H](Cc1csc2ccccc12)C(=O)O; X1 = O=C(CN1CCC(N[*:1])CC1)[*:2]; NHCH(iBu)2 = CC(C)CC(CC(C)C)N*; dOrn = NCCC[C@@H](N)C(=O)O; hSer = N[C@@H](CCO)C(=O)O; X2 = NCCNCC(CNCCN)C(=O)*; dDap = NC[C@@H](N)C(=O)O; CO = O=C([*:1])[*:2]

Tests used:
[1] = n-Octanol-PBS distribution coefficient, log D7.4; format: physicochemical; settings: for log D7.4 (n = 6), ^177Lu-labeled: Table 6, 177Lu-labeled Bombesin-SiFA compounds
Protocol: Approximately 1 MBq of the labeled tracer was dissolved in 1 mL of a 1:1 mixture (v/v) of phosphate buffered saline (PBS, pH=7.4) and n-octanol in an Eppendorf tube. After vigorous mixing of the suspension for 3 min at room temperature, the vial was centrifuged at 9000 rpm for 5 min (Biofuge 15, Heraus Sepatech, Osterode, Germany) and 200 μL aliquots of both layers were measured in a γ-counter. The experiment was repeated at least four times.

GRPR = target: T1, GRPR (Homo sapiens, UniProt P30550); assay: Determination of GRPR affinity (IC50), competition with [D-3-[125I]I-Tyr6]MJ9 on PC-3 cells; format: binding; settings: for IC50 [nM], ^natLu-labeled (n = 3): Table 6, natLu-labeled
T1 construct: endogenous in cells; host or cells: PC-3 cells
T1 sequence (P30550 whole entry): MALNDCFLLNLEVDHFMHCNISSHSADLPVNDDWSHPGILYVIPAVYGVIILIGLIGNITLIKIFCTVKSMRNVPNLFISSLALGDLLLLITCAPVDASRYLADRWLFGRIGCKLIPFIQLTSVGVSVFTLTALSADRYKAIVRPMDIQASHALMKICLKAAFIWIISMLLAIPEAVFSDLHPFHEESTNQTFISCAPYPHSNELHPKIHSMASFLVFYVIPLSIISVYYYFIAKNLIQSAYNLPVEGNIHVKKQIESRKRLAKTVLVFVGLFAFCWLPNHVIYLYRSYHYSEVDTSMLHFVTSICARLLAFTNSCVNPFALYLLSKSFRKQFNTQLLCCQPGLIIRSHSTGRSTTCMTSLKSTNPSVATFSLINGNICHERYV
Protocol: The reference ligand for IC50 studies ([D-3-[^125I]I-Tyr^6]MJ9) is prepared according to a previously published procedure. Briefly, 0.2 mg of [D-Tyr^6]MJ9 are dissolved in 20 μL Tracepur water and 280 μL TRIS buffer (25 mm TRIS HCl, 0.4 M NaCl, pH=7.9). After addition of the solution to a vial containing 150 μg Iodo-Gen® (1,3,4,6-Tetrachloro-3α,6α-diphenylglycouril, surface-bound), 5.0 μL (16 MBq) [^125I]Nal(74 TBq/mmol, 3.1 GBq/mL, 40 mM NaOH, Hartmann Analytic, Braunschweig, Germany) are added.
The GRPR-positive PC-3 cells are cultured in Dublecco modified Eagle medium/Nutrition Mixture F-12 with Glutamax-I (1:1) (Invitrigon), supplemented with 10% fetal calf serum and maintained at 37° C. in a humidified 5% CO2 atmosphere.
After removal of the culture medium, the cells are washed once with 500 μL of HBSS (Hank's balanced salt solution, Biochrom, Berlin, Germany, with addition of 1% bovine serum albumin (BSA)) and left in 200 μL HBSS (1% BSA) for 9 min at room temperature for equilibration. Next, 25 μL per well of solutions, containing either HBSS (1% BSA) as control or the respective ligand in increasing concentration (10^−10 M-10^−4 M in HBSS), are added with subsequent addition of 25 μL of [D-3-[^125I]I-Tyr^6]MJ9 (2.0 nM) in HBSS (1% BSA).
All experiments are performed in triplicate for each concentration. After 2 h incubation at room temperature, the experiment is terminated by removal of the medium and consecutive rinsing with 300 μL of HBSS. The media of both steps are combined in one fraction and represent the amount of free radiolabeled reference. Afterwards, the cells are lysed with 300 μL of 1 M NaOH for at least 15 min and united with the 300 μL NaOH of the following washing step. Quantification of bound and free radiolabeled reference is accomplished in a γ-counter.
IC50 determination for each ligand was repeated twice.

[2] = Plasma studies: metabolic stability in vitro in human plasma (radio RP-HPLC); format: in vitro ADME; settings: Table 1C; 177Lu-labeled, 37° C., 72 ± 2 h; in % (unit assumed)
Protocol: Metabolic stability in vitro was determined applying a procedure published by Linder et al. that was slightly modified. Immediately after labeling, human (200 μL) or murine (100 μL) plasma was added and the mixture was incubated at 37° C. for 72±2 h (or 6±0.5 h). Proteins were precipitated by treatment with ice-cold EtOH (150 μL [human], 100 μL [murine]) and ice-cold MeCN (450 μL [human], 300 μL [murine]), followed by centrifugation for 20 min at 13000 rpm. The supernatants were decanted and further analyzed using radio RP-HPLC. […]

[3] = [D-3-[125I]I-Tyr6]MJ9 (c = 0.2 nM), 2 h, r.t.
[4] = IC50 [nM] ± SD (n = 3), Table 5, non-labeled N4 ligands, [D-3-[125I]I-Tyr6]MJ9 (c = 0.2 nM), 2 h, r.t.
[5] = read-out: IC50 [nM] ± SD (n = 3), ^177Lu-labeled, Table 1C, GRPR affinity

CC(C)C[C@H](NC(=O)C[C@H](O)[C@H](CC(C)C)NC(=O)[C@H](Cc1c[nH]cn1)NC(=O)CNC(=O)[C@@H](NC(=O)[C@H](C)NC(=O)[C@](C)(Cc1c[nH]c2ccccc12)NC(=O)[C@H](CCC(N)=O)NC(=O)[C@@H](Cc1ccccc1)NC(=O)CN1CCC(NC(=O)CCC(C(=O)O)N2CCN(CC(=O)O)CCN(CC(=O)O)CCN(CC(=O)O)CC2)CC1)C(C)C)C(N)=O (single isomer, unassigned) [AMTG2]
log D7.4 ± SD (n = 8) ([1]; 177Lu-labeled ligand, n-octanol/PBS pH 7.4): −2.51 ± 0.11

CC(C)C[C@H](NC(=O)C[C@H](O)[C@H](CC(C)C)NC(=O)[C@H](Cc1c[nH]cn1)NC(=O)CNC(=O)[C@@H](NC(=O)[C@H](C)NC(=O)[C@H](Cc1c[nH]c2ccccc12)NC(=O)[C@H](CCC(N)=O)NC(=O)[C@@H](Cc1ccccc1)NC(=O)CN1CCC(NC(=O)[C@@H](CN)NC(=O)[C@@H](CCCN)NC(=O)[C@@H](CC(=O)O)NC(=O)[C@@H](CC(=O)O)NC(=O)[C@@H](CNC(=O)CCC(C(=O)O)N2CCN(CC(=O)O)CCN(CC(=O)O)CCN(CC(=O)O)CC2)NC(=O)[C@@H](CNC(=O)c2ccc([Si](F)(C(C)(C)C)C(C)(C)C)cc2)NC(=O)CC[C@@H](NC(=O)N[C@H](CCC(=O)O)C(=O)O)C(=O)O)CC1)C(C)C)C(N)=O (stereo partly drawn) [GT50] ({dE-CO-d(γGlu)}-[dDap](Benzoyl(4-SiFtBu2))[dDap](DOTAGA)[dD][dD][dOrn][dDap][X1][dF]QWAVGH[Sta]L-NH2)
log D7.4 (n = 6), ^177Lu-labeled [1]: −1.96 ± 0.15
IC50 [nM], ^natLu-labeled (n = 3) (GRPR; [3]): comparable range

CC(C)C[C@H](NC(=O)C[C@H](O)[C@H](CC(C)C)NC(=O)[C@H](Cc1c[nH]cn1)NC(=O)CNC(=O)[C@@H](NC(=O)[C@H](C)NC(=O)[C@H](Cc1c[nH]c2ccccc12)NC(=O)[C@H](CCC(N)=O)NC(=O)[C@@H](Cc1ccccc1)NC(=O)CN1CCC(NC(=O)[C@@H](CN)NC(=O)[C@@H](CC(=O)O)NC(=O)[C@@H](CCCN)NC(=O)[C@@H](CNC(=O)CCC(C(=O)O)N2CCN(CC(=O)O)CCN(CC(=O)O)CCN(CC(=O)O)CC2)NC(=O)[C@@H](CNC(=O)c2ccc([Si](F)(C(C)(C)C)C(C)(C)C)cc2)NC(=O)CC[C@@H](NC(=O)N[C@H](CCC(=O)O)C(=O)O)C(=O)O)CC1)C(C)C)C(N)=O (stereo partly drawn) [GT51] ({dE-CO-d(γGlu)}-[dDap](Benzoyl(4-SiFtBu2))[dDap](DOTAGA)[dOrn][dD][dDap][X1][dF]QWAVGH[Sta]L-NH2)
log D7.4 (n = 6), ^177Lu-labeled [1]: −1.96 ± 0.15
IC50 [nM], ^natLu-labeled (n = 3) (GRPR; [3]): slightly increased

CC(C)C[C@H](NC(=O)C[C@H](O)[C@H](CC(C)C)NC(=O)[C@H](Cc1c[nH]cn1)NC(=O)CNC(=O)[C@@H](NC(=O)[C@H](C)NC(=O)[C@H](Cc1c[nH]c2ccccc12)NC(=O)[C@H](CCC(N)=O)NC(=O)[C@@H](Cc1ccccc1)NC(=O)CN1CCC(NC(=O)CN2CCC(NC(=O)CN3CCC(NC(=O)[C@@H](CC(=O)O)NC(=O)[C@@H](CNC(=O)CCC(C(=O)O)N4CCN(CC(=O)O)CCN(CC(=O)O)CCN(CC(=O)O)CC4)NC(=O)[C@@H](CNC(=O)c4ccc([Si](F)(C(C)(C)C)C(C)(C)C)cc4)NC(=O)CC[C@@H](NC(=O)N[C@H](CCC(=O)O)C(=O)O)C(=O)O)CC3)CC2)CC1)C(C)C)C(N)=O (stereo partly drawn) [GT52] ({dE-CO-d(γGlu)}-[dDap](Benzoyl(4-SiFtBu2))[dDap](DOTAGA)[dD][X1][X1][X1][dF]QWAVGH[Sta]L-NH2)
log D7.4 (n = 6), ^177Lu-labeled [1]: −2.05 ± 0.08
IC50 [nM], ^natLu-labeled (n = 3) (GRPR; [3]): comparable range

CC(C)C[C@H](NC(=O)C[C@H](O)[C@H](CC(C)C)NC(=O)[C@H](Cc1c[nH]cn1)NC(=O)CNC(=O)[C@@H](NC(=O)[C@H](C)NC(=O)[C@H](Cc1c[nH]c2ccccc12)NC(=O)[C@H](CCC(N)=O)NC(=O)[C@@H](Cc1ccccc1)NC(=O)CN1CCC(NC(=O)CN2CCC(NC(=O)[C@@H](CC(=O)O)NC(=O)[C@@H](CNC(=O)CCC(C(=O)O)N3CCN(CC(=O)O)CCN(CC(=O)O)CCN(CC(=O)O)CC3)NC(=O)[C@@H](CNC(=O)c3ccc([Si](F)(C(C)(C)C)C(C)(C)C)cc3)NC(=O)CC[C@@H](NC(=O)N[C@H](CCC(=O)O)C(=O)O)C(=O)O)CC2)CC1)C(C)C)C(N)=O (stereo partly drawn) [GT53] ({dE-CO-d(γGlu)}-[dDap](Benzoyl(4-SiFtBu2))[dDap](DOTAGA)[dD][X1][X1][dF]QWAVGH[Sta]L-NH2)
log D7.4 (n = 6), ^177Lu-labeled [1]: −1.81 ± 0.15
IC50 [nM], ^natLu-labeled (n = 3) (GRPR; [3]): slightly increased

CC(C)C[C@H](NC(=O)C[C@H](O)[C@H](CC(C)C)NC(=O)[C@H](Cc1c[nH]cn1)NC(=O)CNC(=O)[C@@H](NC(=O)[C@H](C)NC(=O)[C@H](Cc1c[nH]c2ccccc12)NC(=O)[C@H](CCC(N)=O)NC(=O)[C@@H](Cc1ccccc1)NC(=O)CN1CCC(NC(=O)[C@H](CC(=O)O)NC(=O)C(CNCCN)CNCCN)CC1)C(C)C)C(N)=O [Ligand N4-asp-MJ9]
log D7.4 (n = 6), ^99mTc-labeled ([1]; n-octanol/PBS pH 7.4): −1.86 ± 0.03
IC50 (GRPR; [4]): 3.73 ± 0.78 nM

CC(C)C[C@H](NC(=O)C[C@H](O)[C@H](CC(C)C)NC(=O)[C@H](Cc1c[nH]cn1)NC(=O)CNC(=O)[C@@H](NC(=O)[C@H](C)NC(=O)[C@H](Cc1csc2ccccc12)NC(=O)[C@H](CCC(N)=O)NC(=O)[C@@H](Cc1ccccc1)NC(=O)CN1CCC(NC(=O)[C@H](CC(=O)O)NC(=O)C(CNCCN)CNCCN)CC1)C(C)C)C(N)=O [N4-asp-[Bta^8]MJ9] (X2-D[X1][dF]Q[Bta]AVGH[Sta]L-NH2)
log D7.4 (n = 6), ^99mTc-labeled ([1]; n-octanol/PBS pH 7.4): −1.33 ± 0.06
IC50 (GRPR; [4]): 3.36 ± 0.42 nM

CC(C)CC(CC(C)C)NC(=O)[C@H](Cc1c[nH]cn1)NC(=O)CNC(=O)[C@@H](NC(=O)[C@H](C)NC(=O)[C@H](Cc1csc2ccccc12)NC(=O)[C@H](CCC(N)=O)NC(=O)[C@@H](Cc1ccccc1)NC(=O)COCC(=O)Nc1ccc(CNC(=O)CN2CCN(CC(=O)O)CCN(CC(=O)O)CCN(CC(=O)O)CC2)cc1)C(C)C [[Bta^8]NeoBOMB1] (X4-[dF]Q[Bta]AVGH-{NHCH(iBu)2}; N-terminus and C-terminus assumed)
Amount of intact tracer after incubation in human plasma for 72 ± 2 h (n = 2) [2]: 36.2 ± 3.8
IC50 (GRPR; [5]): 13 ± 3 nM

CC(C)CC(CC(C)C)NC(=O)[C@H](Cc1c[nH]cn1)NC(=O)CNC(=O)[C@@H](NC(=O)[C@H](C)NC(=O)[C@H](Cc1c[nH]c2ccccc12)NC(=O)[C@H](CCO)NC(=O)[C@@H](Cc1ccccc1)NC(=O)COCC(=O)Nc1ccc(CNC(=O)CN2CCN(CC(=O)O)CCN(CC(=O)O)CCN(CC(=O)O)CC2)cc1)C(C)C [[Hse^7]NeoBOMB1] (X4-[dF][hSer]WAVGH-{NHCH(iBu)2}; N-terminus and C-terminus assumed)
Amount of intact tracer after incubation in human plasma for 72 ± 2 h (n = 2) [2]: 57.4 ± 2.1
IC50 (GRPR; [5]): 8.3 ± 0.7 nM

CC(C)CC(CC(C)C)NC(=O)[C@H](Cc1c[nH]cn1)NC(=O)CNC(=O)[C@@H](NC(=O)[C@H](C)NC(=O)[C@](C)(Cc1c[nH]c2ccccc12)NC(=O)[C@H](CCC(N)=O)NC(=O)[C@@H](Cc1ccccc1)NC(=O)COCC(=O)Nc1ccc(CNC(=O)CN2CCN(CC(=O)O)CCN(CC(=O)O)CCN(CC(=O)O)CC2)cc1)C(C)C [[α-Me-Trp^8]NeoBOMB1]
Amount of intact tracer after incubation in human plasma for 72 ± 2 h (n = 2) [2]: 70.7 ± 2.8
IC50 (GRPR; [5]): 6.8 ± 1.2 nM
